Reference: ChEMBL document CHEMBL4406821, “Novel dual inhibitors targeting CDK4 and VEGFR2 synergistically suppressed cancer progression and angiogenesis” (Eur J Med Chem, 2019)

Assays:
[1] = biological target: Tyrosine-protein kinase HCK (Homo sapiens) (UniProt P08631); assay: Inhibition of recombinant human HCK (230 to 497 residues) at 1 uM using GGMEDIYFEFMGGKKK as substrate incubated for 40 mins in presence of [gamma-33P]-ATP by scintillation counting method relative to control
[2] = Toxicity in BALB/c mouse assessed as effect on blood parameter by measuring basophils content at 40 mg/kg, po administered once two days for 4 times by hematology analyzer; conditions: in vivo

Chain of Tyrosine-protein kinase HCK (Homo sapiens) (P08631 2-526 limits assumed): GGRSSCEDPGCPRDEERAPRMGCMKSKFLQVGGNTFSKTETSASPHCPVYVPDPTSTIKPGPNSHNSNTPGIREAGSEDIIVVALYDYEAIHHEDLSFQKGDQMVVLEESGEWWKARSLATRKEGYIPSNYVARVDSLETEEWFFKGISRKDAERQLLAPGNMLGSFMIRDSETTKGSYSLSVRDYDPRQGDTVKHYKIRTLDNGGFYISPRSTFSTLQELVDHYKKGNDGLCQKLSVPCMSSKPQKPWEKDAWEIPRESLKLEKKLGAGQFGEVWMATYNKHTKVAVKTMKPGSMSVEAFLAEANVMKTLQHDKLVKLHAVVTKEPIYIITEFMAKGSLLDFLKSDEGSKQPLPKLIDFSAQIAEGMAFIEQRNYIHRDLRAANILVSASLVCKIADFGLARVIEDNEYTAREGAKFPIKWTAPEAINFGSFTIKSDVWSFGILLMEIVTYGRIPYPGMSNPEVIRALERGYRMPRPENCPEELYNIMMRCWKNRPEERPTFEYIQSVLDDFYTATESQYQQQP

Cc1ccc(NC(=O)C2(C(=O)Nc3ccc(Nc4ncc(F)c(-c5cc(F)c6nc(C)n(C(C)C)c6c5)n4)cc3)CC2)cc1
inhibition [1]: 66% | Activity [2]: Non-Toxic
